The values below come from US8389567B2, “Compounds that modulate intracellular calcium” (Calcimedica, Inc., priority 2007, dated 2013).

The test system of assay [1] is store-operated calcium entry in HEK[STIM1] cells. Particulars: read-out: IC50 for inhibition of calcium entry, thapsigargin store depletion, readdition of external calcium, pre-incubation with increasing doses. As to the method: (§1) To test whether the Ca^2+ entry pathway constitutively activated by STIM 1 overexpression is pharmacologically similar to endogenous SOCE, HEK[STIM1] cells are pre-incubated with increasing doses of 2-APB and STIM1-induced Ca^2+ entry is measured.

In assay [2] the test system is STIM1-induced Ca2+ entry in HEK[STIM1] cells. As to the method: as §1
For assay [3], the system named is store-operated calcium entry in HEK-Zeo control cells. Particulars: read-out: IC50 for inhibition of calcium entry, thapsigargin store depletion, readdition of external calcium, pre-incubation with increasing doses. The procedure: as §1

The structures appear in SMILES notation.

A word on the IC50: it is the concentration at which inhibition is half-maximal. With `NCCOB(c1ccccc1)c1ccccc1` [Compound 2-APB, 2-aminoethoxydiphenyl borate], the 50% inhibitory concentration (IC50) in assay [1] amounted to 10.5 µM; in assay [2] (read-out: IC50 for inhibition of constitutive calcium entry, absence of store depletion), 10.8 µM; in assay [3], 11.8 µM. Further, the “effect on calcium entry at lower concentrations” value in assay [2] (absence of store depletion, lower concentrations of 2-APB (biphasic effect)) is on record as “potentiated”.
